Several values for one entry are separate records, joined by “and”; a condition that tells them apart may be missing. Equal entries are not always repeated.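 Test compounds were applied to cells in 96-well plates for 48 hours at 5 doses. GI50 = concentration required for 50% inhibition of growth. TGI denotes the concentration required for complete inhibition of growth.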

Among the test systems are SNB-75 CNS; MOLT-4 leukemia; M14 melanoma; LOX IMVI melanoma; ACHN renal; UO-31 renal; MALME-3M melanoma; NCI-H226 lung; SF-268 CNS; IGROV1 ovarian.
Common to all, as to assay: NCI tumour cell line growth inhibition, 48 h

For the molecule `COc1cc2c3c(n(CCCCNC(=O)OCC4c5ccccc5-c5ccccc54)c(=O)c2cc1OC)-c1cc2c(cc1C3=O)OCO2`, the GI50 with SNB-75 CNS was 28.9 µM; in the assay on MOLT-4 leukemia, 0.281 µM; in the assay with M14 melanoma, 25.9 µM; in the assay with LOX IMVI melanoma, 7.08 µM; with ACHN renal, 5.8 µM; in the assay with UO-31 renal, 49.3 µM. Further, the GI50 with MALME-3M melanoma is > 100 µM; in the assay with NCI-H226 lung it was 31.1 µM; in the assay with SF-268 CNS it was 6.7 µM; in the assay on IGROV1 ovarian, 17.9 µM. The TGI with SNB-75 CNS is > 100 µM; in the assay with MOLT-4 leukemia, 1.81 µM; in the assay with M14 melanoma it was > 100 µM; in the assay on LOX IMVI melanoma, > 100 µM; in the assay with ACHN renal it was 50.4 µM; in the assay with UO-31 renal, > 100 µM. The TGI in the assay on MALME-3M melanoma, in the assay with NCI-H226 lung, in the assay on SF-268 CNS and with IGROV1 ovarian was > 100 µM in each case.

On to `N#CCC12CC=CCC1=C(O)C(=O)c1ccc(O)cc12` (stereo unspecified), for which the TGI in the assay with SNB-75 CNS, with MOLT-4 leukemia, in the assay on M14 melanoma, in the assay with LOX IMVI melanoma, with ACHN renal and in the assay with UO-31 renal was > 100 µM throughout. The TGI with MALME-3M melanoma, in the assay on NCI-H226 lung, in the assay with SF-268 CNS and with IGROV1 ovarian was > 100 µM each time.

`CCC[CH2][Sn]1([CH2]CCC)[O]C(=O)c2cccc(OC)c2[O]1`: the GI50 is 0.112 µM in the assay on SNB-75 CNS; 0.217 µM with MOLT-4 leukemia; 0.422 µM in the assay on M14 melanoma; 0.161 µM with LOX IMVI melanoma; 0.271 µM in the assay on ACHN renal; 0.806 µM in the assay with UO-31 renal. Further, the GI50 in the assay on MALME-3M melanoma is 0.14 µM; in the assay on NCI-H226 lung it was 1.63 µM; in the assay on SF-268 CNS, 0.194 µM; with IGROV1 ovarian, 0.755 µM. Also, the TGI was 1.26 µM with SNB-75 CNS; 1.36 µM with MOLT-4 leukemia; 1.56 µM with M14 melanoma; 0.442 µM in the assay on LOX IMVI melanoma; 0.753 µM in the assay with ACHN renal; 2.07 µM in the assay on UO-31 renal. In addition, the TGI with MALME-3M melanoma came to 0.633 µM; with NCI-H226 lung it was 3.04 µM; in the assay on SF-268 CNS, 0.841 µM; in the assay on IGROV1 ovarian it was 2.15 µM.

On to `O=C(Nc1ccc([N+](=O)[O-])cc1C(=O)O)c1ccc([N+](=O)[O-])cc1`, for which the TGI with SNB-75 CNS is > 100 µM; in the assay with MOLT-4 leukemia it was 31.4 µM; in the assay with M14 melanoma, > 100 µM; in the assay with LOX IMVI melanoma, > 100 µM; in the assay with ACHN renal, > 100 µM; in the assay with UO-31 renal, > 100 µM. For the same molecule, the TGI was > 100 µM in the assay with MALME-3M melanoma, 91.6 µM in the assay on NCI-H226 lung, > 100 µM in the assay on SF-268 CNS and > 100 µM in the assay with IGROV1 ovarian.

`N#CCc1ccc(/C(C#N)=C2/OC(=N)C(c3ccc(CC#N)cc3)C2=O)cc1` (stereo unspecified): the TGI in the assay on SNB-75 CNS, in the assay on MOLT-4 leukemia, in the assay on M14 melanoma, in the assay with LOX IMVI melanoma, in the assay with ACHN renal and in the assay on UO-31 renal was > 100 µM each time. Further, the TGI with MALME-3M melanoma, with NCI-H226 lung, with SF-268 CNS and in the assay with IGROV1 ovarian was > 100 µM each time.

Take `N#CCCN(CCC#N)c1ccc(/C=N\c2nc(-c3ccccc3)cs2)cc1`: the TGI in the assay with SNB-75 CNS, in the assay with MOLT-4 leukemia, with M14 melanoma, with LOX IMVI melanoma, with ACHN renal and with UO-31 renal was > 100 µM throughout. In addition, the TGI in the assay with MALME-3M melanoma, in the assay on NCI-H226 lung, in the assay on SF-268 CNS and in the assay on IGROV1 ovarian was > 100 µM in each case.

On to `CC1(C)N=C(N)N=C(N)N1c1ccc(OCC(=O)N2CCOCC2)c(Cl)c1`, for which the GI50 in the assay on SNB-75 CNS was 10.3 µM; with MOLT-4 leukemia, 6.31 µM; in the assay with M14 melanoma it was 4.19 µM; in the assay on LOX IMVI melanoma, 0.545 µM; with ACHN renal, > 100 µM; in the assay with UO-31 renal it was > 100 µM. The GI50 is 6.17 µM in the assay on MALME-3M melanoma, 33.5 µM in the assay with NCI-H226 lung, 0.759 µM in the assay with SF-268 CNS and 0.379 µM in the assay with IGROV1 ovarian. Further, the TGI in the assay on SNB-75 CNS, in the assay on MOLT-4 leukemia, in the assay with M14 melanoma, in the assay on LOX IMVI melanoma, with ACHN renal and in the assay with UO-31 renal was > 100 µM each time. For the same molecule, the TGI with MALME-3M melanoma is > 100 µM; in the assay on NCI-H226 lung, > 100 µM; in the assay with SF-268 CNS, > 100 µM; with IGROV1 ovarian, 12.9 µM.

`O=C(Nc1cccc([N+](=O)[O-])c1)c1ccc2ccccc2c1O`: the GI50 in the assay on SNB-75 CNS was 17 µM; in the assay on MOLT-4 leukemia, 3.4 µM; in the assay with M14 melanoma it was 6.81 µM; with LOX IMVI melanoma, 9.94 µM; in the assay on ACHN renal, 12.2 µM; in the assay with UO-31 renal, 3.35 µM. Moreover, the GI50 in the assay on MALME-3M melanoma is 1.58 µM; in the assay with NCI-H226 lung it was 7.57 µM; with SF-268 CNS, 7.72 µM; with IGROV1 ovarian, 13.8 µM. For the same molecule, the TGI in the assay on SNB-75 CNS was > 100 µM; in the assay with MOLT-4 leukemia it was > 46.5 µM; with M14 melanoma, > 100 µM; in the assay with LOX IMVI melanoma it was > 100 µM; with ACHN renal, > 95.4 µM; with UO-31 renal it was > 53 µM. In addition, the TGI in the assay with MALME-3M melanoma is 6.28 µM; in the assay with NCI-H226 lung it was > 100 µM; in the assay on SF-268 CNS, > 100 µM; in the assay with IGROV1 ovarian it was 46 µM.

With `Cn1cnc([N+](=O)[O-])c1SC1=NCCS1`, the TGI in the assay on SNB-75 CNS is > 100 µM; in the assay on MOLT-4 leukemia, > 100 µM; in the assay on M14 melanoma, > 100 µM; with LOX IMVI melanoma, 39 µM; in the assay on ACHN renal it was > 100 µM; with UO-31 renal it was > 100 µM. The TGI with MALME-3M melanoma is 70.2 µM; in the assay on NCI-H226 lung, > 100 µM; in the assay with SF-268 CNS, > 100 µM; with IGROV1 ovarian, > 100 µM.

For the molecule `C/C=C(\CCC1NCCc2c1[nH]c1ccccc21)[Si](C)(C)C` (stereo unspecified), the TGI with SNB-75 CNS is 14.8 µM and 16.7 µM; in the assay with MOLT-4 leukemia it was 13.8 µM and 8.98 µM; with M14 melanoma it was 8.8 µM and 3.66 µM; with LOX IMVI melanoma it was 38.5 µM and 4.84 µM; in the assay on ACHN renal, 25 µM and 8.04 µM; in the assay on UO-31 renal, 22.5 µM and 10.5 µM. Further, the TGI with MALME-3M melanoma was 7.1 µM and 3.23 µM; in the assay with NCI-H226 lung, 18.6 µM and 21.6 µM; in the assay with SF-268 CNS it was 26.2 µM and 23.6 µM; with IGROV1 ovarian, 16.6 µM and 12.6 µM. Also, the GI50 with M14 melanoma was 4.65 µM and 1.82 µM; in the assay on ACHN renal, 11.4 µM and 2.79 µM; with UO-31 renal, 8.47 µM and 3.65 µM; in the assay on IGROV1 ovarian, 11.9 µM and 4 µM.

In the case of `CNc1cccnc1/C=N/NC(N)=S`, the TGI with SNB-75 CNS was > 7.14 µM; with MOLT-4 leukemia it was > 10 µM; with M14 melanoma, 3.94 µM; in the assay on LOX IMVI melanoma, > 10 µM; in the assay on ACHN renal it was 1.76 µM; in the assay on UO-31 renal it was 4.5 µM. For the same molecule, the TGI in the assay on MALME-3M melanoma, in the assay with NCI-H226 lung, with SF-268 CNS and with IGROV1 ovarian was > 10 µM throughout.

Consider `Nc1nc(Cl)c(N=Nc2ccc(Cl)cc2)c(NCC2(CO)CC(OCc3ccccc3)C2)n1` (stereo unspecified), for which the GI50 was 4.55 µM in the assay on SNB-75 CNS; 3.39 µM and 9.61 µM and 3.56 µM in the assay with MOLT-4 leukemia; 2.04 µM and 18.1 µM and 2.72 µM with LOX IMVI melanoma; 2.6 µM with ACHN renal; 3.27 µM with UO-31 renal; 17.9 µM and 10.1 µM in the assay with MALME-3M melanoma. Also, the GI50 in the assay with NCI-H226 lung is 6.92 µM and 18.9 µM and 6.68 µM. The TGI in the assay on SNB-75 CNS was 26.8 µM and > 29.1 µM and 25.5 µM; in the assay with MOLT-4 leukemia it was 38.6 µM and > 100 µM and > 48.4 µM; with M14 melanoma, > 100 µM and 18.7 µM; in the assay with LOX IMVI melanoma it was 20.7 µM and > 100 µM and 11.3 µM; in the assay with ACHN renal, 20.3 µM and 3.55 µM and 3.47 µM; in the assay with UO-31 renal it was 12.5 µM and 6.43 µM. Moreover, the TGI is 33.3 µM in the assay with MALME-3M melanoma; 28.9 µM and > 100 µM and 24.9 µM with NCI-H226 lung; 61.1 µM and > 100 µM and > 61 µM in the assay on SF-268 CNS; 70.3 µM and > 100 µM and 29.9 µM in the assay with IGROV1 ovarian.

On to `COc1ccc(CC2NCCc3cc(OC)c(OC)cc32)cc1` (stereo unspecified), for which the TGI in the assay on SNB-75 CNS, in the assay on MOLT-4 leukemia, in the assay on M14 melanoma, in the assay on LOX IMVI melanoma, in the assay with ACHN renal and with UO-31 renal was > 100 µM each time. Moreover, the TGI in the assay on MALME-3M melanoma, in the assay on NCI-H226 lung, in the assay on SF-268 CNS and with IGROV1 ovarian was > 100 µM throughout.

As for `O=C1/C(=C/c2ccc([N+](=O)[O-])o2)Oc2ccccc21`, the GI50 was 1.8 µM in the assay on SNB-75 CNS; 1.35 µM in the assay with MOLT-4 leukemia; 1.69 µM in the assay with M14 melanoma; 1.42 µM in the assay on LOX IMVI melanoma; 0.895 µM in the assay with ACHN renal; 1.07 µM in the assay on UO-31 renal. For the same molecule, the GI50 with MALME-3M melanoma is 1.86 µM; with NCI-H226 lung, 1.94 µM; in the assay on SF-268 CNS, 2.19 µM; in the assay with IGROV1 ovarian, 1.37 µM. For the same molecule, the TGI in the assay on SNB-75 CNS is 5.77 µM; in the assay with MOLT-4 leukemia it was 3.7 µM; with M14 melanoma, 3.88 µM; in the assay on LOX IMVI melanoma, 2.93 µM; in the assay with ACHN renal it was 2.17 µM; in the assay with UO-31 renal it was 2.86 µM. The TGI came to 3.78 µM with MALME-3M melanoma, 4.98 µM in the assay with NCI-H226 lung, 5.86 µM in the assay on SF-268 CNS and 3.62 µM with IGROV1 ovarian.
